Measured values taken from US20090325259A1, “USE OF ADHESION MOLECULES AS BOND STRESS-ENHANCED NANOSCALE BINDING SWITCHES” (priority 2002, published 2009).

Legend:
[1] = test system: guinea pig red blood cells (RBCs); test: RBC rosette-formation assay (static agglutination); type: cell-based; conditions: for RBC agglutination under static conditions (in words): static rosette-formation assay
Method: (§1) Assays of bacterial adhesion to Man1-BSA and bovine RNAseB immobilized in 96-well plates were carried out as described previously (Sokurenko et al., 1995). Briefly, Man1-BSA and bovine RNAseB were dissolved at 20 μg/ml in 0.02 M bicarbonate buffer, and 100 μl aliquots were incubated in microtiter wells for 1 hr at 37° C. The wells were then washed three times with PBS and quenched with 0.1% BSA in PBS. 3H-thymidine-labeled bacteria were added in 0.1% BSA in PBS and incubated for 40 min at 37° C. without shaking to achieve saturation, and the wells were then washed with PBS. The individual wells were subjected to scintillation counting. The density of bacteria used in all assays was 5×10^7 colony forming units per 100 μl. RBC rosette-formation assay was performed by mixing equal amounts of serially diluted bacterial suspensions (starting from OD540 nm=1.0) and a 1% suspension of RBC in U-bottom microtiter plate wells. On-slide agglutination assays were performed by mixing the suspension of RBC and bacteria on a slide surface followed by rocking at ˜3 s^−1.
(§2) Two commonly used RBC agglutination assays were performed that utilize different shear conditions. […] If no agglutination occurs, RBCs fall into a pellet in the bottom of the well (FIG. 15A), while agglutination results in a rosette of RBCs crosslinked by bacteria. […] After three minutes without rocking, the aggregate loosened (FIG. 15C).

[2] = test system: guinea pig red blood cells (RBCs); test: Parallel plate flow chamber, RBCs on carpet of FimH-expressing E. coli; type: cell-based; conditions: for Adhesion of RBCs to bacterial carpet under low shear: 0.01 to 0.14 dynes/cm^2
Method: Bacteria-coated dishes were prepared as follows: 35 mm tissue culture dishes were incubated with 20 μg/ml RNAse B in 0.02 M bicarbonate buffer for 1 hr at 37° C. and washed three times in PBS with 0.1% BSA (PBS-BSA). The dishes were then incubated with 200 μl PBS-BSA containing 108 colony-forming units of E. coli for 1 hr at 37° C. and washed three times. […] The dishes were then placed under a Glycotech parallel plate flow chamber with a size B gasket (2.5 cm×0.25 cm×250 μm) and sealed with vacuum. A Harvard model #975 pulse-free syringe pump was used to pump fluid through the chamber. The dishes were equilibrated in the flow chamber with PBS-BSA, and a 0.1% solution of RBC was injected into the chamber, allowed to settle onto the bacterial carpet, and washed with PBS-BSA at a shear stress of about 0.5 dynes/cm^2 until all free cells had been removed from the chamber and upstream tubing. The volumetric flow was then reduced to bring the shear stress down to 0.01-0.02 dynes/cm^2, and the shear stress was stepped up 2-fold, with at least 3 min at each shear stress.
RBC movement was recorded using phase contrast microscopy with a 20× objective, a CCD camera, and Metamorph video imaging software by Universal Imaging. Videos were recorded at 1 frame every 2 s for a total of 3 min at each shear rate. The position of each RBC was tracked at 6 s intervals in these videos using Metamorph's point tracking plug-in. The average velocity for each cell was calculated from these positions over the 3 min at each shear. These were then averaged for the average velocity of all cells. Some cells detached completely at the low shear stress and moved at the fluid velocity. (A cell moving in flow near a surface has velocity approximately equal to the cell radius, 5 μm, times the shear rate, assuming it is almost touching the surface.) Since these times reflected movement without any bond detachment, these time intervals were removed from the analysis for each cell. We only analyzed cells that were attached and in the field of view at the start of the 3 min time frame. The off-rate of RBCs was calculated from the X, the percent of original RBCs remaining bound at time t, using the formula k=1/t·ln(1/X), and using t=3 min. This assumes that detachment is independent and governed by a single rate constant, and X=e−kt, so that the number of remaining RBCs decays exponentially.
To establish whether the differential pattern of RBC agglutination observed in example 1 was due to a distinct ability of shear to enhance adhesion of type I fimbriated bacteria to RBCs, we studied the adhesion of low- and high-Man1 binding variants to RBCs under well-defined shear conditions. Previous studies on the effect of shear on selectin or von Willebrand factor-mediated adhesion of lymphocytes and platelets have used flow chambers (Finger et al., 1996; Marchese et al., 1999). Using a similar approach, we immobilized bacteria expressing either FimH-f18 or FimH-j96 on the surface of a flow chamber coated with bovine 3Man-RNaseB, a model trimannose-containing substrate to which both FimH variants bind with equal affinity (see Table 1A). In brief, RBCs were allowed to bind to the bacterial carpet, and the unbound cells were removed by rinsing under moderate fluid flow shear (0.28 to 0.90 dynes/cm^2). RBCs that remained attached to the bacterial carpet were then subjected to various shear conditions.

[3] = test system: E. coli bacteria expressing f18-FimH; test: Parallel plate flow chamber, E. coli on surfaces coated with purified components; type: binding; conditions: for Effect of shear on accumulation of E. coli on coated surface (in words): 0.12 to 20 dynes/cm^2
Method: Parallel plate flow chamber experiments. Dishes coated with purified components were prepared by incubating 35 mm tissue culture dishes with […] of either 200 mg/ml man-BSA, 200 mg/ml gal-BSA, or a 50,000-fold dilution of polyclonal anti-FimH antiserum in 0.02M bicarbonate buffer for 75 minutes at 37 C, and then washing three times with phosphate-buffered […] with 0.1% BSA (PBS-BSA). The dishes were then inserted into a 2.5 cm×0.25 cm×[…] parallel plate flow chamber (GlycoTech). Bacteria expressing f18-FimH were prepared as described previously (W. E. Thomas, E. Trintchina, M. Forero, V. Vogel, E. V. Sokurenko, Cell 109:913-23 (Jun. 28, 2002)), and brought to 108 cfu/ml in PBS-BSA. 2% alpha-monomannose was added to the PBS-BSA in the studies of surfaces coated with anti-FimH antibodies in order to inhibit any potential mannose-specific interaction between the bacteria and the carbohydrate modifications on the antibodies. This solution of bacteria was flowed through the chamber using a Harvard syringe pump at various shear rates. The bound bacteria were recorded using a Nikon inverted microscope with a 10× phase-contrast objective, a Roper Scientific high-resolution CCD camera, and MetaMorph video acquisition software. The field of view was […] with a resolution of […] per pixel. Even when 400 bacteria bound per field of view, they covered only 1% of the surface area, so that any interactions between bacteria were minimal.
Videos of bound bacteria were analyzed using MetaMorph imaging software. Total bound bacteria in an image appeared as dark spots in phase-contrast and were counted using the automated cell counting package in MetaMorph. The moving bacteria in an image were identified by subtracting an image from another taken one second earlier so that the bacteria that moved after the first image appear as dark spots that can be counted (FIG. 1, FIG. 3A, FIG. 4). This number was compared to the total number originally counted in the first image to give the fraction of bacteria that moved (FIGS. 1B 3C 3D. The movement may represent detachment or rolling. In FIG. 3B where even detached bacteria were visible due to the short shutter speed and low flow rate, bacteria were classified as detached when they moved faster than the hydrodynamic velocity (the shear rate times the bacterial radius of […]), as stationary if they moved less than one pixel (the size of the larger fluctuations in bacterial position over time that occurred with no net movement), and as rolling for anything in between.
Bacterial adhesion and accumulation is the first step in colonizing, and in many cases infecting target tissues. In order to determine the mechanism which allows bacteria to adhere to target tissues under shear, we studied the kinetics by which E. coli bacteria attach and detach from 1Man-coated surfaces, and how the attachment and detachment behavior depends on shear. Recombinant type I fimbriated E. coli bacteria were used that expressed a variant of the adhesion FimH. […] This FimH variant is found in commensal E. coli strains, including the strain F-18 used in our study. Mannosylated bovine serum albumin (1Man-BSA) was adsorbed to glass to prepare chemically controlled model surfaces that expose only 1Man in contrast to using red blood cells that present additional ligands and receptors that might interacting with E. coli. […] A suspension of E. coli cells was passed through a flow chamber coated with 1Man and the binding of bacteria to the surface under various shear conditions was determined. Using a long (2 second) camera shutter time to blur out the free floating cells, we measured the accumulation of stationary bacteria bound to the surface after a period of five minutes at a range of physiologically relevant shear stresses, from 0.12 to 20 dynes/cm^2 (FIG. 6, triangles). […] This is consistent with previous reports of poor binding of this strain to 1Man in the absence of shear.

f-18 fimbriae (FimH) = f-18 fimbriae (FimH) (Escherichia coli, UniProt P08191, N91S/S99N/V48A); conditions: 6 μm PS beads
Method: Physisorption of fimbriae to PS plates: 35 mm Coming (#430165) tissue culture dishes were incubated with purified fimbriae diluted 500 fold in 0.02M bicarbonate buffer at 37° C. for 1 hour, and then washed thrice in PBS with 0.1% BSA (PBS-BSA) to prevent nonspecific adhesion by the beads or RBCs to the dish.
Bead coating by 1Man-BSA: Polystyrene microspheres were prepared by rotating a solution of 50 μl of 2.6% beads mixed with 150 μl of 20-200 μg/ml receptor in 0.02M Bicarbonate buffer for one hour at room temperature. Then they were spun twice and resuspended in fresh PBS-BSA. They were finally diluted down to 0.1% and injected in the chamber.
Parallel plate flow chamber experiments: The coated dishes served as the bottom plate in parallel plate flow chamber from Glycotech #31-0001 (Rockville, Md.) using a silicon rubber gasket 20 mm long, 2.5 mm wide and 0.010 in thick. […] The movement of the beads and RBCs was recorded using an inverted Nikon TE 2000 microscope with a long working distance 10× phase contrast objective by means of a Roper Scientific (Duluth, Ga.) Cascade CCD camera.
Data Analysis: Images of the flow chamber were recorded every 3 seconds for 3 minutes at each shear rate. […] The expected free flowing velocity was calculated by multiplying the shear rate by the radius of the particle, assuming that it is barely touching the surface. […]

[4] = test system: guinea pig red blood cells (RBCs); test: On-slide RBC agglutination with rocking (dynamic); type: cell-based
Method: as §1, §2

[5] = switch from 5 to 0.12 dynes/cm^2

Sequence of f-18 fimbriae (FimH) (P08191 22-300 V48A/N91S/S99N): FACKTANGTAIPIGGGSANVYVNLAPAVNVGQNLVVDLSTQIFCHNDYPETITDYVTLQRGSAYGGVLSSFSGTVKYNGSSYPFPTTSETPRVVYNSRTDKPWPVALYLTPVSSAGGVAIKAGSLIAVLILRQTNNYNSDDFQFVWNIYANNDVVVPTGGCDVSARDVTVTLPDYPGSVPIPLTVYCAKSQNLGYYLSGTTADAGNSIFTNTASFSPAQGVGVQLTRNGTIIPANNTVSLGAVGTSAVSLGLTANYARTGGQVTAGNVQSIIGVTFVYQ
Sequence of f-18 fimbriae (FimH) (P08190 24-167 partner): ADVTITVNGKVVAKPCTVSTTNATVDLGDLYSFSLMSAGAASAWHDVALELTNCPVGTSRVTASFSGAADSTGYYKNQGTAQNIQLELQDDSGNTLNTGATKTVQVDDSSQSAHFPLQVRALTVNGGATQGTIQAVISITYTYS
Sequence of f-18 fimbriae (FimH) (P08189 21-176 partner): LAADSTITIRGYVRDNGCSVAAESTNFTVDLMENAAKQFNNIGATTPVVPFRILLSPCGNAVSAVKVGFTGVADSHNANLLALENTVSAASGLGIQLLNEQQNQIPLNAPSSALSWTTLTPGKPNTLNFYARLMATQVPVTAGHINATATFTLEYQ
Sequence of f-18 fimbriae (FimH) (P04128 24-182 partner): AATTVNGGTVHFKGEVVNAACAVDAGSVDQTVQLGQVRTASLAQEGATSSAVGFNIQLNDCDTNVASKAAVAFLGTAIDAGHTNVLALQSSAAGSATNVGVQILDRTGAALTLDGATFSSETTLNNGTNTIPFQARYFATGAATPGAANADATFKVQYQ

COC1O[C@H](CO)[C@@H](O)[C@H](O)[C@@H]1O (stereo partly drawn) [α-methyl-mannoside, reference compound]
Inhibition of RBC agglutination by α-methyl-mannoside ([1]; 50 mM, in all assays (static and dynamic)): inhibitable | Inhibition of original attachment of RBCs to bacteria ([2]; 50 mM): could be inhibited

Q32L: single Q32L mutation, effect stated in the FimH-j96 background
RBC agglutination under static conditions (in words) [1]: eliminated the ability of the bacteria to agglutinate RBCs under static conditions

1Man-BSA: monomannose (1Man) conjugated to Bovine Serum Albumin
Effect of shear on accumulation of E. coli on coated surface (in words) [3]: shear enhances the adhesion | Number of initial attachments in the field of view ([3]; 0.5 dynes/cm^2): 102 attachments per minute | Number of initial attachments in the field of view ([3]; 3.6 dynes/cm^2): 64 attachments per minute | Increase of E. coli accumulation on coated surface ([3]; 5 dynes/cm^2): 100 -fold | Number of initial attachments in the field of view ([3]; 7 dynes/cm^2): 32 attachments per minute | Rolling velocity of surface-bound bacteria ([3]; at the peak of the accumulation curve): about 30 mm per second | Accumulation of E. coli on coated surface, fold higher binding ([3]; peaking at around 3-5 dynes/cm^2, five minutes): over 100 -fold | First-order rate constant for the switch from rolling to detached [3, 5]: 3 s⁻¹ | First-order rate constant for the switch from stationary to rolling [3, 5]: 0.09 s⁻¹ | Binding of coated beads to carpet of fimbriae (in words) (f-18 fimbriae (FimH)): shear-activated binding | Shear stress at which bead velocity starts to drop (f-18 fimbriae (FimH)): 0.03 pN/μm^2

FimH-j96: natural FimH variant of uropathogenic E. coli strain J96; differs from FimH-f18 by A27V, S70N, N78S
Dilution of bacteria up to which RBC rosettes formed ([1]; static conditions): ≤ 8 -fold dilution | RBC agglutination under static conditions (in words) [1]: able to agglutinate RBC in static conditions | Stability of RBC aggregates after rocking was halted ([4]; after rocking was halted): remained stable indefinitely long | Time for RBCs to form tight clumps in dynamic rocking assay ([4]; highest concentration of bacteria (10^9 bacteria/ml)): 35 ± 2 s | Adhesion of RBCs to bacterial carpet under low shear [2]: adhered firmly

FimH-f18: low-Man1 binding natural FimH variant from intestinal E. coli strain F18, expressed on type I fimbriated recombinant bacteria
RBC agglutination under static conditions (in words) [1]: unable to mediate RBC agglutination | Time after rocking was stopped within which aggregates began to dissipate ([4]; after rocking was stopped): ≤ 3 min | RBC aggregate formation in rocking assay with diluted bacteria ([4]; bacteria 10-fold diluted): still formed aggregates | Off-rate of RBCs from bacterial carpet ([2]; 0.14 dynes/cm^2): 0.002 min⁻¹ | Off-rate of RBCs from bacterial carpet ([2]; 0.2 to 0.4 dynes/cm^2, on average): 0.1 min⁻¹ | Off-rate of RBCs from bacterial carpet ([2]; 0.7 dynes/cm^2): 0.03 min⁻¹ | Adhesion of RBCs to bacterial carpet under low shear [2]: bind weakly | Adhesion of RBCs to bacterial carpet under moderate shear ([2]; moderate shear, 0.28 to 0.90 dynes/cm^2): firmly adhered | Off-rate of RBCs from bacterial carpet ([2]; shear stresses above 0.2 dynes/cm^2): too low to measure

galactosylated BSA: negative control galactosylated BSA; galactose is not specifically recognized by FimH
Effect of shear on accumulation of E. coli on coated surface (in words) [3]: essentially no bacteria bound at any shear

S124A: single S124A mutation, effect stated in the FimH-j96 background
RBC agglutination under static conditions (in words) [1]: eliminated the ability of the bacteria to agglutinate RBCs under static conditions
